From patent US20080132520A1, “COMPOSITIONS, KITS AND METHODS FOR ADMINISTERING A TITRATION SCHEDULE COMPRISING BIFEPRUNOX COMPOUNDS” (priority 2006, published 2008)

What was measured:
[1] = Clinical investigations on bifeprunox mesylate: tolerability; details: human, in vivo
dopamine D2/3 receptors = details: cited from earlier work
[2] = target: T1, serotonin 5-HT1A receptors (Homo sapiens, UniProt P08908); details: cited from earlier work
T1 sequence (P08908 1-422): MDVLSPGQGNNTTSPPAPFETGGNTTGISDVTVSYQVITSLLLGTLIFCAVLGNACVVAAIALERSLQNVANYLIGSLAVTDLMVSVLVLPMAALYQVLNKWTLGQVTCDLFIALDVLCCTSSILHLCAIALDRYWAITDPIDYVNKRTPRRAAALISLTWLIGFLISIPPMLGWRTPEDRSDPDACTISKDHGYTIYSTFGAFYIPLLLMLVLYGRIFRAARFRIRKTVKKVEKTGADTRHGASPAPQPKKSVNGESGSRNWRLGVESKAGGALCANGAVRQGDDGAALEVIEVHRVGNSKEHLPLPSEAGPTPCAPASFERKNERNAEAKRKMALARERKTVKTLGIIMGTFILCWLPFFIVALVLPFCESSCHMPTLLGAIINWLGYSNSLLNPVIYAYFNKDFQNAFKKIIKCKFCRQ

[3] = Rapid titration study: efficacy assessments (PANSS, CGI-S, CGI-I); format: in vivo, human; details: short treatment period, titration to 40 mg/day plus 3-day maintenance
Protocol: This study represented a randomized, double-blinded, placebo-controlled, sequential panel, rapid titration study of the safety and tolerability of bifeprunox compounds in subjects with schizophrenia. […] Efficacy assessments (i.e., Positive and Negative Symptoms of Schizophrenia (PANSS) and Clinical Global Impression-Severity (CGI-S) were performed at screening, Day-1 and at the final assessment; Clinical Global Impressions-improvement (CGI-I was performed at the final assessment only. […] The treatment phase lasted approximately two weeks, including follow-up assessment. Subjects remained hospitalized until the post-treatment follow-up assessment was completed or until their condition had clinically stabilized.

[4] = Randomized, double-blinded, placebo-controlled, sequential panel, rapid titration study: safety and tolerability; format: in vivo, human
Protocol: This study represented a randomized, double-blinded, placebo-controlled, sequential panel, rapid titration study of the safety and tolerability of bifeprunox compounds in subjects with schizophrenia. In particular, this study assessed the safety, tolerability and efficacy after a rapid titration of bifeprunox to a therapeutic dose of 40 mg/day in schizophrenia and schizoaffective subjects. Eligible subjects were hospitalized at the start of the screening period and entered a single-blind placebo run-in period (day -7 to -1) to assure that the 7-day antipsychotic drug-free criterion was met prior to bifeprunox titration. Subjects then began rapid titration at an initial bifeprunox starting dose of 0.25 mg with a high proposed therapeutic dose of 40 mg/day. Two titration schedules were evaluated in sequential order, with the titration period lasting 6 to 7 days depending on the titration schedule (Day 1 to Day 6 or 7).
Each listed dose in the titration schedule was administered once daily (QD) followed by the next higher dose the following day. […] Only one repeat dose, however, was allowed during the entire titration period. Upon reaching the high proposed dose of 40 mg/day, the subject entered a 3-day maintenance period for this dose. Final assessments were performed on the day after the last maintenance period dose and follow-up assessments were performed 3 days after the last dose of study treatment.
Efficacy assessments (i.e., Positive and Negative Symptoms of Schizophrenia (PANSS) and Clinical Global Impression-Severity (CGI-S) were performed at screening, Day-1 and at the final assessment; Clinical Global Impressions-improvement (CGI-I was performed at the final assessment only. Safety was monitored throughout the study by assessment of physical examination, vital signs, adverse events (AEs), concomitant medications, clinical laboratory assessments, 12-lead electrocardiograms (ECGs), Simpson-Angus Scale (SAS) score and Barnes Akathisia Scale (BAS) score. The treatment phase lasted approximately two weeks, including follow-up assessment. Subjects remained hospitalized until the post-treatment follow-up assessment was completed or until their condition had clinically stabilized.
The study planned to include 20 subjects (10 subjects per panel). Twenty-seven subjects were screened and 18 were randomized (7 to bifeprunox and 1 to placebo in titration schedule 1 and 8 to bifeprunox and 2 to placebo titration schedule 2c). Ten subjects per panel were initially available as planned. Two subjects, however, dropped out of the first panel before the start of the study. As such, the study proceeded with the eighteen subjects.
Males and females between 18-55 years old meeting Diagnostic and Statistical Manual of Mental Disorders, 4th edition, Text Revised (DSM-IV TR) diagnosis of Schizophrenia disorder (295.10, 295.20, 295.30, 295.60 and 295.90) or Schizoaffevtive disorder (295.70).
Bifeprunox were tablets taken orally at a total daily dose of 0.25 mg to 40 mg in the following titration schedules:
Placebo tablets matching the bifeprunox tablets were taken orally using the same dosing regimen as the test product.

| Structure (SMILES) | tolerability during clinical investigations [1] | functional activity at dopamine D2/3 receptors (dopamine D2/3 receptors) | functional activity at serotonin 5-HT1A receptors [2] | benefit over placebo in severity of symptoms of schizophrenia (PANSS total scores, CGI-S and CGI-I scores, responder rate) [3] | subjects with TEAEs leading to discontinuation of the study treatment ([4]; titration schedule 1) | subjects with at least 1 TEAE related to study treatment ([4]; titration schedule 1) | subjects with vital sign abnormalities on the same day as relevant AEs (dizziness or orthostatic hypotension) ([4]; titration schedule 1) | tolerability of daily increases to 20 to 40 mg once the 10 mg dose was reached ([4]; titration schedule 1) | subjects reporting at least one treatment emergent adverse event (TEAE) ([4]; titration schedule 1 (0.25, 1, 5, 10, 20, 40 mg QD oral over 6 days), 7 subjects on bifeprunox) | TEAEs at the 20 mg dose level ([4]; titration schedule 1, 20 mg dose level) | subjects reporting TEAEs considered to be severe ([4]; titration schedule 1, severe TEAEs at the 1, 5 and 10 dose levels) | TEAEs of anorexia, gait abnormal NOS or orthostatic hypotension ([4]; titration schedule 2c) | additional subjects requiring re-challenge of a dose level who completed titration up to 40 mg ([4]; titration schedule 2c) | subjects with TEAEs related to the study treatment ([4]; titration schedule 2c) | subjects with vital sign abnormalities same days as AEs of dizziness ([4]; titration schedule 2c) | subjects reporting at least one TEAE ([4]; titration schedule 2c (0.25, 0.5, 2, 5, 10, 20, 40 mg QD oral over 7 days), 8 subjects on bifeprunox) | tolerability of titration from 0.25 mg to 40 mg over 7 days versus over a 6-day period ([4]; titration schedule 2c versus 1) | subjects with TEAE leading to discontinuation of the study treatment ([4]; titration schedule 2c, TEAE of dizziness) | subjects reporting TEAEs considered to be severe ([4]; titration schedule 2c, severe TEAEs at the 2 mg and 5 mg dose level) | effects on BAS, SAS, ECG or clinical laboratory evaluations ([4]; titration schedules 1 and 2c) |
| --- | --- | --- | --- | --- | --- | --- | --- | --- | --- | --- | --- | --- | --- | --- | --- | --- | --- | --- | --- | --- |
| CS(=O)(=O)O.O=c1[nH]c2cccc(N3CCN(Cc4cccc(-c5ccccc5)c4)CC3)c2o1 [bifeprunox mesylate, 7-[4-([1,1′-biphenyl]-3-ylmethyl)-1-piperazinyl]-2(3H)-benzoxazolone monomethane-sulfonate] | well tolerated |  |  |  |  |  |  |  |  |  |  |  |  |  |  |  |  |  |  |  |
| O=c1[nH]c2cccc(N3CCN(Cc4cccc(-c5ccccc5)c4)CC3)c2o1 [bifeprunox, 7-[4-([1,1′-biphenyl]-3-ylmethyl)-1-piperazinyl]-2(3H)-benzoxa-zolone] |  | partial agonist | partial agonist | little benefit | Three subjects | All subjects | Two subjects | well-tolerated | All subjects | No TEAEs occurred | Three subjects | no TEAEs | Two additional subjects | Six out of 8 | Four subjects | All subjects | better tolerated | One subject | Three subjects | Neither titration schedule of bifeprunox appeared to have any effects |
